Assay results from patent publication US10457679B2, “Imidazo[4,5-c]quinolin-2-one compounds and their use in treating cancer” (AstraZeneca AB, priority 2015, dated 2019).
Like-named read-outs stand apart in the source and are kept apart here.

Legend:
[1] = biological target: T1, ATR kinase (Homo sapiens, UniProt Q13535); assay: Assay b) ATR cellular potency (pChk1 Ser345 in HT29 cells after 4NQO); type: cell-based; settings: HT29 cells, 4NQO, pChk1 Ser345; may be geometric mean of several tests; read-out: Assay b) ATR Cell IC50
T1 construct: measuring a decrease in phosphorylation of Chk1 (Ser 345) in HT29 cells; endogenous in cells; host or cells: HT29 cells (ECACC #85061109)
From the text: Assay b): ATR Cellular Potency
ATR is a PI 3-kinase-related kinase which phosphorylates multiple substrates on serine or threonine residues in response to DNA damage during or replication blocks. Chk1, a downstream protein kinase of ATR, plays a key role in DNA damage checkpoint control. Activation of Chk1 involves phosphorylation of Ser317 and Ser345 (the latter regarded as the preferential target for phosphorylation/activation by ATR).
The following morning compound of Formula (I) in 100% DMSO were added to assay plates by acoustic dispensing. After 1 h incubation at 37° C. and 5% CO2. 40 nl of 3 mM 4NQO in 100% DMSO was added to all wells by acoustic dispensing, except minimum control wells which were left untreated with 4NQO to generate a null response control. Plates were returned to the incubator for a further 1 h. […] Then 20 μl of 0.1% Triton X100 in PBS was added and incubated for 10 minutes at r.t., to permeabalise cells. Then the plates were washed once with 50 μl/well PBS, using a Biotek EL405 plate washer.
After 2 h incubation at r.t., the plates were washed three times with 50 μl/well PBS, using a Biotek EL405 plate washer, and plates were then sealed with black plate seals until read. Plates were read using an ArrayScan VTI instrument, using an XF53 filter with 10× objective.

[2] = biological target: T2, mTOR (Homo sapiens, UniProt P42345); assay: Assay d) mTOR cellular potency (phospho-AKT Ser473 in MDA-MB-468 cells); type: cell-based
T2 construct: endogenous in cells; host or cells: MDA-MB-468 cells (ATCC HTB 132)
Protocol: Assay d): mTOR Cellular Potency
This assay was used to measure mTOR inhibition in cells. The aim of the phospho-AKT cell based mechanism of action assay using the Acumen Explorer is to identify inhibitors of either PI3Kα or mTOR-Rictor (Rapamycin insensitive companion of mTOR). This is measured by any decrease in the phosphorylation of the Akt protein at Ser473 (AKT lies downstream of PI3Kα in the signal transduction pathway) in the MDA-MB-468 cells following treatment with compound. Method Details:
MDA-MB-468 cells (human breast adenocarcinoma #ATCC HTB 132) were seeded at 1500 cells/well in 40 μl of DMEM containing 10% FBS and 1% glutamine into Greiner 384 well black flat-bottomed plates. Cell plates were incubated for 18 h in a 37° C. incubator before dosing with compounds of Formula (I) in 100% DMSO using acoustic dispensing. Compounds were dosed in a 12 point concentration range into a randomised plate map. Control wells were generated either by dosing of 100% DMSO (max signal) or addition of a reference compound (a PI3K-β inhibitor) that completely eliminated the pAKT signal (min control). Compounds were then tested by one of two assay protocols A or B:
Plates were incubated at 37° C. for 2 h; cells were then fixed by the addition of 10 μl of a 3.7% formaldehyde solution. After 30 minutes the plates were washed with PBS using a Tecan PW384 plate washer. Wells were blocked and cells permeabilised with the addition of 40 μl of PBS containing 0.5% Tween20 and 1% Marvel™ (dried milk powder) and incubated for 60 minutes at r.t. The plates were washed with PBS containing 0.5% (v/v) Tween20 and 20 μl rabbit anti-phospho AKT Ser473 (Cell Signalling Technologies, #3787) in same PBS-Tween+1% Marvel™ was added and incubated overnight at 4° C.
Plates were washed 3 times with PBS+0.05% Tween 20 using a Tecan PW384. 20 μl of secondary antibody Alexa Fluor 488 anti-Rabbit (Molecular Probes, #A11008) diluted in PBS+0.05% Tween20 containing 1% Marvel™ was added to each well and incubated for 1 h at r.t. Plates were washed three times as before then 20 μl PBS added to each well and plates sealed with a black plate sealer.
The plates were read on an Acumen plate reader as soon as possible, measuring green fluorescence after excitation with 488 nm laser. Using this system IC50 values were generated and quality of plates was determined by control wells. Reference compounds were run each time to monitor assay performance.
The cell plates were then incubated for 2 h at 37° C. before being fixed by the addition of 20 μl 3.7% formaldehyde in PBS/A (1.2% final concentration), followed by a 30 minute room temperature incubation, and then a 2× wash with 150 μl PBS/A using a BioTek ELx406 platewasher. Cells were permeabilised and blocked with 20 μl of assay buffer (0.1% Triton X-100 in PBS/A+1% BSA) for 1 h at room temperature, and then washed 1× with 50 μl PBS/A. Primary phospho-AKT (Ser473) D9E XP® rabbit monoclonal antibody (#4060, Cell Signaling Technology) was diluted 1:200 in assay buffer, 20 μl added per well, and plates were incubated at 4° C. overnight. Cell plates were washed 3× with 200 μl PBS/T, then 20 μl 1:750 dilution in assay buffer of Alexa Fluor® 488 goat anti-rabbit IgG secondary antibody (#A11008, Molecular Probes, Life Technologies), with a 1:5000 dilution of Hoechst 33342, was added per well. Following a 1 h incubation at room temperature, plates were washed 3× with 200 μl PBS/T, and 40 μl PBS w/o Ca, Mg and Na Bicarb (Gibco #14190-094) was added per well.
Stained cell plates were covered with black seals, and then read on the Cell Insight imaging platform (Thermo Scientific), with a 10× objective. The primary channel (Hoechst blue fluorescence 405 nM, BGRFR_386_23) was used to Autofocus and to count number of events (this provided information about cytotoxicity of the compounds tested). The secondary channel (Green 488 nM, BGRFR_485_20) measured pAKT staining. […]

[3] = pAKT Ser473, Protocol A (§); read-out: Assay d) mTOR Cell IC50
[4] = pAKT Ser473, Protocol B (*); read-out: Assay d) mTOR Cell IC50

T1 sequence (Q13535 whole entry): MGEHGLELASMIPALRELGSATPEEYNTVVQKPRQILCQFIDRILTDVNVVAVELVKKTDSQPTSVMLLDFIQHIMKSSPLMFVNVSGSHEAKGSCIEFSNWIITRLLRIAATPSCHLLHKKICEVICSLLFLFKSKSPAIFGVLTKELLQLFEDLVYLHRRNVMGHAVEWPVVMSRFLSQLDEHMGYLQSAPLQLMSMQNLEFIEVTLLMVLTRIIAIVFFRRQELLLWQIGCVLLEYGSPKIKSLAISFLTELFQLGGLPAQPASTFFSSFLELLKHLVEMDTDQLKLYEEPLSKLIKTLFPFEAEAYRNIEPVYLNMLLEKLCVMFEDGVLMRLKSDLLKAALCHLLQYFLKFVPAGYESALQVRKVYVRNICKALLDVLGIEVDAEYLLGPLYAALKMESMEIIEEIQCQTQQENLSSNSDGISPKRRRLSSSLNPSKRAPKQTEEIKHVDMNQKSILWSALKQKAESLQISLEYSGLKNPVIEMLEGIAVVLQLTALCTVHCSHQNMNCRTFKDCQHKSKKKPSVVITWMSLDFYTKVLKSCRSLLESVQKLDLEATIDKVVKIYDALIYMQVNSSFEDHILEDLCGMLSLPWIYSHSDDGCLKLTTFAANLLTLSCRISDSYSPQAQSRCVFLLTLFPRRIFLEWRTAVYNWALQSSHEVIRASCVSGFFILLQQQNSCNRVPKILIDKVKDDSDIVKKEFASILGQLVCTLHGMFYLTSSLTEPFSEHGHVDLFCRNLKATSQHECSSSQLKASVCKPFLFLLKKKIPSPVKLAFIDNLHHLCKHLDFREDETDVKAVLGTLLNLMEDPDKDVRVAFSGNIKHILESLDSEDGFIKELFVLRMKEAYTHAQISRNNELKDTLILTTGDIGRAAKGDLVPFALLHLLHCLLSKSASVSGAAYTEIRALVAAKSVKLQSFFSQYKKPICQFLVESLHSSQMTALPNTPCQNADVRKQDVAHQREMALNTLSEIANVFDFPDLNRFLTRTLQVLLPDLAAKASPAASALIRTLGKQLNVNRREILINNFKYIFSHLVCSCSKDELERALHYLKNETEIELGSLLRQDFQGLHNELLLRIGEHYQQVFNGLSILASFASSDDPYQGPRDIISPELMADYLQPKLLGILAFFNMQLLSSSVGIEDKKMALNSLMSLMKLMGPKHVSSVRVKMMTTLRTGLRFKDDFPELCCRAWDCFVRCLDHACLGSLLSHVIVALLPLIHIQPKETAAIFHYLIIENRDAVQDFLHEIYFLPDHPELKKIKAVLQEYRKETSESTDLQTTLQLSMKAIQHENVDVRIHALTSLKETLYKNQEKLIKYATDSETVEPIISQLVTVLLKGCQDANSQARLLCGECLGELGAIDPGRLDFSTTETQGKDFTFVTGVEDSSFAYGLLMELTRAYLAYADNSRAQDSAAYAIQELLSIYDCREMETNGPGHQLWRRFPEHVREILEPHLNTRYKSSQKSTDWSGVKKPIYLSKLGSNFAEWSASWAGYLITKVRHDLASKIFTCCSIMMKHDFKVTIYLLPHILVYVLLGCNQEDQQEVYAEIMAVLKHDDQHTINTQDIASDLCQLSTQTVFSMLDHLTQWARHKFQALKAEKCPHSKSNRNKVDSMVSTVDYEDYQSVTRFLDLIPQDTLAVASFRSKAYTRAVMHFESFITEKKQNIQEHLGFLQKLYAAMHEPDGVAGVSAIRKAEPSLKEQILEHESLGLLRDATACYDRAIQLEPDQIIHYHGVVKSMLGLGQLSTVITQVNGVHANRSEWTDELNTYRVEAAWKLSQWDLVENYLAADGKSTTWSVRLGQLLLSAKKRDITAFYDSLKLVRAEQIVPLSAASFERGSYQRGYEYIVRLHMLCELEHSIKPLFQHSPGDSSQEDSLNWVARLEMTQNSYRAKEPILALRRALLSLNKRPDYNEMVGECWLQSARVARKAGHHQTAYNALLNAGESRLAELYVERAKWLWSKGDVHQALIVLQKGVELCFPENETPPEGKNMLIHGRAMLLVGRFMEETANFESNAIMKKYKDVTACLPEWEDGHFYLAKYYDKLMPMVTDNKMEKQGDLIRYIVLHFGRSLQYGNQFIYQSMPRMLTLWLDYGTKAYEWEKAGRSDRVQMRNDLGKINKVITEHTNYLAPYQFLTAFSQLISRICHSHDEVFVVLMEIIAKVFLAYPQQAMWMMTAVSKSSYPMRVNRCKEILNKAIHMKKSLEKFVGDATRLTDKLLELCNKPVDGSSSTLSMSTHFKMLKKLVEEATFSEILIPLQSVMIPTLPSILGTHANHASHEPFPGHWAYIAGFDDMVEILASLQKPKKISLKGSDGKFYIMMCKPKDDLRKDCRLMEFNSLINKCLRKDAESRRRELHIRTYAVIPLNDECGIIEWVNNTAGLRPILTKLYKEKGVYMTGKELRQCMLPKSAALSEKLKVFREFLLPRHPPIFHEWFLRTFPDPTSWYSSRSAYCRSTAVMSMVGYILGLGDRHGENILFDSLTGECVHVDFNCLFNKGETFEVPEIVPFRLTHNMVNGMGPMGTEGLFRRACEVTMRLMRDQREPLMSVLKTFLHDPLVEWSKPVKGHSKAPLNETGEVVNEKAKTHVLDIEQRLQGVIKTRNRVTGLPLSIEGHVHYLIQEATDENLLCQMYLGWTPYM
T1 sequence (Q8WXE1 whole entry partner): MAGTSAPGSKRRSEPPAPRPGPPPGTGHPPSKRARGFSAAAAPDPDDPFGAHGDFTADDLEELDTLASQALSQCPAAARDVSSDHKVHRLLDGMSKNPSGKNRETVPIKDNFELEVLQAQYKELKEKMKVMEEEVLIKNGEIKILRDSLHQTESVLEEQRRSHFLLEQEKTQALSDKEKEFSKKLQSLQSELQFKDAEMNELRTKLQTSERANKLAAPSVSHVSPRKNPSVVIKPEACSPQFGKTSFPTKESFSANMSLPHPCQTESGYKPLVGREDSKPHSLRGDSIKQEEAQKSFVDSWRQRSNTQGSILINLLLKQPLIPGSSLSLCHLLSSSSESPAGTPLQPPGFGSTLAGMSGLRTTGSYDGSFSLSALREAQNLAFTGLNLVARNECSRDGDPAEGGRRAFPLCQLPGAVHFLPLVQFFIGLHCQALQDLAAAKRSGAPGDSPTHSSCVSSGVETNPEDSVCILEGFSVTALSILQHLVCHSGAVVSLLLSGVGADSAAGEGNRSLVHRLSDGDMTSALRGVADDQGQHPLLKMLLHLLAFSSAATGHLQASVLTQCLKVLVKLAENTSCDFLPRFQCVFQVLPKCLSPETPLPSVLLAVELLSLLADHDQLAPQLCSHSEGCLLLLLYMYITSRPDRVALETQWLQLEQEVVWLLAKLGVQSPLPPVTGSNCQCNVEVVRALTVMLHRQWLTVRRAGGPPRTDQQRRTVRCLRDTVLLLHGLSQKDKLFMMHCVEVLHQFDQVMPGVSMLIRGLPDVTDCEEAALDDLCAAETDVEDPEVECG

SMILES	IC50 [1] [µM]	IC50 [2, 3] [µM]	IC50 [2, 4] [µM]
CC(C)n1c(=O)n(C)c2cnc3ccc(-c4ccc(OCCCN5CCCCC5)nc4F)cc3c21 [Example 9, 8-[2-Fluoro-6-[3-(1-piperidyl)propoxy]-3-pyridyl]-1-isopropyl-3-methyl-imidazo[4,5-c]quinolin-2-one]	> 30	> 5.19	–
CC(C)n1c(=O)n(C)c2cnc3ccc(-c4ccc(OCCCN5CCC5)nc4)cc3c21 [Example 8, 8-[6-[3-(Azetidin-1-yl)propoxy]-3-pyridyl]-1-isopropyl-3-methyl-imidazo[4,5-c]quinolin-2-one]	–	–	0.405
CC(C)n1c(=O)n(C)c2cnc3cc(F)c(-c4ccc(OCCCN5CCC5)nc4F)cc3c21 [Example 16, 8-[6-[3-(azetidin-1-yl)propoxy]-2-fluoro-3-pyridyl]-7-fluoro-1-isopropyl-3-methyl-imidazo[4,5-c]quinolin-2-one]	> 30	> 29.9	–
CC(C)n1c(=O)n(C)c2cnc3ccc(-c4ccc(OCCCN5CCCC5)nc4)cc3c21 [Example 7, 1-isopropyl-3-methyl-8-[6-(3-pyrrolidin-1-ylpropoxy)-3-pyridyl]imidazo[4,5-c]quinolin-2-one]	> 30	–	3.19
CC(C)n1c(=O)n(C)c2cnc3cc(F)c(-c4ccc(OCCCN5CCCC5)nc4F)cc3c21 [Example 13, 7-fluoro-8-[2-fluoro-6-(3-pyrrolidin-1-ylpropoxy)-3-pyridyl]-1-isopropyl-3-methyl-imidazo[4,5-c]quinolin-2-one]	> 30	–	> 30
CC(C)n1c(=O)n(C)c2cnc3ccc(-c4ccc(OCCCN(C)C)nc4F)cc3c21 [Example 10, 8-[6-[3-(dimethylamino)propoxy]-2-fluoro-3-pyridyl]-1-isopropyl-3-methyl-imidazo[4,5-c]quinolin-2-one]	> 30	–	3.49
CC(C)n1c(=O)n(C)c2cnc3cc(F)c(-c4ccc(OCCCN5CCCCC5)nc4)cc3c21 [Example 2, 7-Fluoro-1-isopropyl-3-methyl-8-[6-[3-(1-piperidyl)propoxy]-3-pyridyl]imidazo[4,5-c]quinolin-2-one]	> 30	–	> 30
CC(C)n1c(=O)n(C)c2cnc3ccc(-c4ccc(OCCCN5CCCC5)nc4F)cc3c21 [Example 12, 8-[2-fluoro-6-(3-pyrrolidin-1-ylpropoxy)-3-pyridyl]-1-isopropyl-3-methyl-imidazo[4,5-c]quinolin-2-one]	> 30	–	> 10
CC(C)n1c(=O)[nH]c2cnc3cc(F)c(-c4ccc(OCCCN5CCCCC5)nc4)cc3c21 [Example 18, 7-Fluoro-1-isopropyl-8-[6-[3-(1-piperidyl)propoxy]-3-pyridyl]-3H-imidazo[4,5-c]quinolin-2-one]	> 30	> 30	–
CC(C)n1c(=O)n(C)c2cnc3cc(F)c(-c4ccc(OCCCN5CCCCC5)nc4F)cc3c21 [Example 14, 7-fluoro-8-[2-fluoro-6-[3-(1-piperidyl)propoxy]-3-pyridyl]-1-isopropyl-3-methyl-imidazo[4,5-c]quinolin-2-one]	> 30	–	> 30

Further lines, results first:

IC50 [1] [µM]	IC50 [2, 3] [µM]	IC50 [2, 4] [µM]	SMILES
> 30	> 30	–	CC(C)n1c(=O)n(C)c2cnc3cc(F)c(-c4ccc(OCCCN5CCC5)nc4)cc3c21 [Example 4, 8-[6-[3-(azetidin-1-yl)propoxy]-3-pyridyl]-7-fluoro-1-isopropyl-3-methyl-imidazo[4,5-c]quinolin-2-one]
> 30	> 20	–	CC(C)n1c(=O)n(C)c2cnc3cc(F)c(-c4ccc(OCCCN5CCCC5)nc4)cc3c21 [Example 3, 7-Fluoro-1-isopropyl-3-methyl-8-[6-(3-pyrrolidin-1-ylpropoxy)-3-pyridyl]imidazo[4,5-c]quinolin-2-one]
> 20.7	> 3.12	–	CC(C)n1c(=O)n(C)c2cnc3ccc(-c4ccc(OCCCN(C)C)nc4)cc3c21 [Example 6, 8-[6-[3-(dimethylamino)propoxy]-3-pyridyl]-1-isopropyl-3-methyl-imidazo[4,5-c]quinolin-2-one]
9.41	–	> 30	CC(C)n1c(=O)n(C)c2cnc3cc(F)c(-c4ccc(OCCC[N+]5([O-])CCCCC5)nc4)cc3c21 [Metabolite A, 7-Fluoro-1-isopropyl-3-methyl-8-[6-[3-(1-oxidopiperidin-1-ium-1-yl)propoxy]-3-pyridyl]imidazo[4,5-c]quinolin-2-one]
